The source of these data is patent US6702995B1, “Delivery system” (TheRyte, Ltd., priority 1997, dated 2004).

For data set [1], the system named is HELA cell line. As to the kind of experiment: Clonogenic cell survival assay, HELA. In kind it is cell-based, human. How it is done:
(§1) TAXOL (paclitaxel) is a powerful cytotoxic agent but is very difficult to use because it is almost insoluble in water or blood plasma. For in vivo or in vitro use, it is generally dissolved in dimethyl sulphoxide (DMSO) or in a complex commercial pharmaceutical preparation. […] The TAXOL (paclitaxel) concentration was varied over the range of 1 to 8nM. These carrier solutions were labeled “polymer” series. Similarly, the same range of TAXOL (paclitaxel) solution concentrations was prepared in neat dimethyl sulphoxide as solvent; these carrier solutions were labeled “DMSO” series. Finally, a series of commercially available pharmaceutical preparations was used, which contained TAXOL (paclitaxel) in the concentration range of 1 to 8 nM; these carrier solutions were labeled “commercial” series. […] The four series of solutions were compared for their cytotoxic action by a clonogenic cell survival assay using three human in vitro cell lines, viz., HELA (originally explanted from cancer of the cervix), HRT-18 (originally explanted from […]) and MGHU-1 (originally explanted from a bladder cancer).

Data set [2] deals with HRT-18 cell line. As to the kind of experiment: Clonogenic cell survival assay, HRT-18. In kind it is cell-based, human. As to conditions: HRT-18, clonogenic cell survival. How it is done:
as §1

The subject of data set [3] is MGHU-1 cell line. As to the kind of experiment: Clonogenic cell survival assay, MGHU-1. As to conditions: MGHU-1, clonogenic cell survival. In kind it is cell-based, human. As for the experimental part:
as §1

The subject of data set [4] is cancer cells (Molt 4).
Procedure: Typically, for a porphyrin sensitizer, the concentration was determined by ultraviolet/visible measurement of absorption at the Soret wavelength near 420 nm.
The cell growth medium was prepared in three varieties. Each variety contained the nutrients required for cell growth. One variety contained neither sensitizer nor polymer, a second contained polymer but no sensitizer and a third contained both polymer and sensitizer.
The resulting solution was adjusted to pH 7.2 by careful addition of aqueous sodium hydroxide solution (5 M) and finally once more filtered through a 0.22 μm filter. The resulting solution was used as the growth medium containing both sensitizer and polymer in the following experiments. A growth medium containing only polymer was prepared as here but omitting the sensitizer, viz, instead of the sensitizer solution (85 mL), an equal volume of distilled water containing the same amount of polymer but no sensitizer was added. […]
For each growth medium, 10 mL of a suspension containing 10^7-10^8 cells/mL were centrifuged and the cells were resuspended in one of the growth media described above (45mL) to give three cell preparations: A, containing sensitizer plus polymer; B, containing neither sensitizer nor polymer; C, containing polymer but no sensitizer. […] Its amount could be determined by visible spectroscopy as described above. […]

Regarding `COc1cc(NS(C)(=O)=O)ccc1Nc1c2ccccc2nc2ccccc12` [amsacrine], the “cytotoxic action (in words)” value in data set [1], in data set [2] and in data set [3] was “effective” throughout.
On to `C1=Cc2nc1c(-c1ccccc1)c1ccc([nH]1)c(-c1ccccc1)c1nc(c(-c3ccccc3)c3ccc([nH]3)c2-c2ccccc2)C=C1` [sensitizer, 5,10,15,20 tetrakis phenyl porphyrin], for which the “cell growth (cell count)” value in data set [4] is recorded as “not inhibited”.
